Measured values: ChEMBL document CHEMBL1128118, “Synthesis of biologically active 2-benzoyl paclitaxel analogues” (1995)

Experiments:
Tubulin (Bos taurus) = Tubulin (Bos taurus) (UniProt Q6B856+Q862L2+Q862F3); assay: Ratio of ED50 for microtubule polymerization to ED50 for paclitaxel; Relative paclitaxel ED50 = 1.0; type: functional
B16 = assay: Ratio of ED50 of compound for B16 melanoma cytotoxicity to that of ED50 of paclitaxel; Relative paclitaxel ED50 = 1.0; type: functional, Mus musculus
P388 = assay: Compound was tested for in vitro cytotoxicity against P388 cells; type: functional, Mus musculus

SMILES	Ratio (Tubulin (Bos taurus))	Ratio (B16)	Activity (P388)
CC(=O)O[C@H]1C(=O)[C@]2(C)[C@@H](O)CC3OC[C@@]3(OC(C)=O)[C@H]2[C@H](OC(=O)c2ccc([N+](=O)[O-])cc2)[C@]2(O)C[C@H](OC(=O)[C@H](O)[C@@H](NC(=O)c3ccccc3)c3ccccc3)C(C)=C1C2(C)C (some centres not stated)	> 8.8	–	–
CC(=O)O[C@H]1C(=O)[C@]2(C)[C@@H](O)CC3OC[C@@]3(OC(C)=O)[C@H]2[C@H](OC(=O)c2ccc(Cl)c(Cl)c2)[C@]2(O)C[C@H](OC(=O)[C@H](O)[C@@H](NC(=O)c3ccccc3)c3ccccc3)C(C)=C1C2(C)C (some centres not stated)	0.45	2.7	–
CC(=O)O[C@H]1C(=O)[C@]2(C)[C@@H](O)CC3OC[C@@]3(OC(C)=O)[C@H]2[C@H](OC(=O)c2cccc(C)c2)[C@]2(O)C[C@H](OC(=O)[C@H](O)[C@@H](NC(=O)c3ccccc3)c3ccccc3)C(C)=C1C2(C)C (some centres not stated)	1.7	1.6	–
COc1ccc(C(=O)O[C@H]2[C@H]3[C@](C)(C(=O)[C@H](OC(C)=O)C4=C(C)[C@@H](OC(=O)[C@H](O)[C@@H](NC(=O)c5ccccc5)c5ccccc5)C[C@]2(O)C4(C)C)[C@@H](O)CC2OC[C@]23OC(C)=O)cc1 (some centres not stated)	6	22	–
CC(=O)O[C@H]1C(=O)[C@@]2(C)[C@H]([C@H](OC(=O)c3ccccc3)[C@]3(O)C[C@H](OC(=O)[C@H](O)[C@@H](NC(=O)c4ccccc4)c4ccccc4)C(C)=C1C3(C)C)[C@]1(OC(C)=O)CO[C@@H]1C[C@@H]2O [PACLITAXEL]	1	1	1
CC(=O)O[C@H]1C(=O)[C@]2(C)[C@@H](O)CC3OC[C@@]3(OC(C)=O)[C@H]2[C@H](OC(=O)c2cccc(Cl)c2)[C@]2(O)C[C@H](OC(=O)[C@H](O)[C@@H](NC(=O)c3ccccc3)c3ccccc3)C(C)=C1C2(C)C (some centres not stated)	1.1	0.57	0.81
CC(=O)O[C@H]1C(=O)[C@]2(C)[C@@H](O)CC3OC[C@@]3(OC(C)=O)[C@H]2[C@H](OC(=O)c2cc(Cl)cc(Cl)c2)[C@]2(O)C[C@H](OC(=O)[C@H](O)[C@@H](NC(=O)c3ccccc3)c3ccccc3)C(C)=C1C2(C)C (some centres not stated)	0.98	1.8	–
CC(=O)O[C@H]1C(=O)[C@]2(C)[C@@H](O)CC3OC[C@@]3(OC(C)=O)[C@H]2[C@H](OC(=O)c2ccc(C)cc2)[C@]2(O)C[C@H](OC(=O)[C@H](O)[C@@H](NC(=O)c3ccccc3)c3ccccc3)C(C)=C1C2(C)C (some centres not stated)	1.6	5.1	–
CC(=O)O[C@H]1C(=O)[C@]2(C)[C@@H](O)CC3OC[C@@]3(OC(C)=O)[C@H]2[C@H](OC(=O)c2cccc([N+](=O)[O-])c2)[C@]2(O)C[C@H](OC(=O)[C@H](O)[C@@H](NC(=O)c3ccccc3)c3ccccc3)C(C)=C1C2(C)C (some centres not stated)	1.3	0.73	–
CC(=O)O[C@H]1C(=O)[C@]2(C)[C@@H](O)CC3OC[C@@]3(OC(C)=O)[C@H]2[C@H](OC(=O)c2cccc(C(F)(F)F)c2)[C@]2(O)C[C@H](OC(=O)[C@H](O)[C@@H](NC(=O)c3ccccc3)c3ccccc3)C(C)=C1C2(C)C (some centres not stated)	0.64	2.7	–
CC(=O)O[C@H]1C(=O)[C@]2(C)[C@@H](O)CC3OC[C@@]3(OC(C)=O)[C@H]2[C@H](OC(=O)c2ccc(Cl)cc2)[C@]2(O)C[C@H](OC(=O)[C@H](O)[C@@H](NC(=O)c3ccccc3)c3ccccc3)C(C)=C1C2(C)C (some centres not stated)	0.79	3.1	–
CC(=O)O[C@H]1C(=O)[C@]2(C)[C@@H](O)CC3OC[C@@]3(OC(C)=O)[C@H]2[C@H](OC(=O)c2ccc(F)cc2)[C@]2(O)C[C@H](OC(=O)[C@H](O)[C@@H](NC(=O)c3ccccc3)c3ccccc3)C(C)=C1C2(C)C (some centres not stated)	3.2	>36	–
CC(=O)O[C@H]1C(=O)[C@]2(C)[C@@H](O)CC3OC[C@@]3(OC(C)=O)[C@H]2[C@H](OC(=O)c2ccccc2C)[C@]2(O)C[C@H](OC(=O)[C@H](O)[C@@H](NC(=O)c3ccccc3)c3ccccc3)C(C)=C1C2(C)C (some centres not stated)	1.1	0.84	–
